Tests used:
[1] = background art; cited from earlier work
adenosinedeaminase [2] = settings: cited from earlier work
EMT-6 tumor [3] = assay: Radiosensitizing effect on EMT-6 experimental tumors in mice (enhancer i.p. after local irradiation); assay type: in vivo, BALB/c-strain female mice; settings: for Radiosensitizing activity: summary statement; for Diameter ratio / Mean tumor diameter / Volume ratio: irradiation 1500 rad + i.p. enhancer (3'-dGuo-5'-MP 100 mg/kg; 3'-dAdo-5'-MP 75 mg/kg); for 0.5 to less than 1 of volume ratio excluding cure; Tumor regression rate: slow, share of mice / 1.0 to less than 2.0 of volume ratio excluding cure; regrowth: slow, share of mice / 2.0 or more of volume ratio excluding cure; regrowth: rapid, share of mice / Cure (tumors completely vanished), share of mice / Less than 0.5 of volume ratio excluding cure; Tumor regression rate: rapid, share of mice: 28th day after treatment, irradiation 1500 rad + enhancer (3'-dGuo-5'-MP 100 mg/kg; 3'-dAdo-5'-MP 75 mg/kg); for Mean tumor diameter at the time of irradiation: baseline before irradiation (1500 rad) and i.p. enhancer (3'-dGuo-5'-MP 100 mg/kg, n = 9; 3'-dAdo-5'-MP 75 mg/kg, n = 10)
Description: EMT-6 tumor cells (2×10^5) were inoculated intradermally into the right thighs of BALB/c-strain female mice (8 weeks old, 6 or more mice for each group). When the tumor size reached 6 to 7 mm in diameter after inoculation of the tumor cells, local irradiation with a 32 MeV electron beam was carried out at 1,500 rad under no anesthesia and thereafter 3'-dGuo-5'-MP and 3'-dAdo-5'-MP dissolved in physiological saline solution, was administered intraperitoneally to each mouse in the indicated doses of respective agents. After these treatments, the tumor sizes were measured in tri-dimensional diameters every day or every other day for 28 days, and compared with the control group with respect to the following items: [formula]
The results are shown in Table 1 and Table 2, in which "cure" means that the tumors completely vanished during the observation period.

[4] = tested on: potentially lethal damage repair (PLDR); assay: Inhibition of potentially lethal damage repair (PLDR)
From the text: In view of the fact that the tumor cells with radioresistance under hypoxic conditions are at a quiescent stage, I have investigated the possibility of radiosensitization by inhibiting potentially lethal damage repair (hereinafter referred to as "PLDR"), which is especially marked in quiescent cells.

adenosinedeaminase [5] = settings: in bodies; cited from earlier work
[6] = Acute toxicity test, intraperitoneal; settings: mouse, in vivo, ip, ICR mice, male, 8 weeks old, observed for a week
Description: The compounds of this invention were administered intraperitoneally to ICR mice (male, 8 weeks old, 10 mice for each group), and the mice were subjected to observation for a week.

EMT-6 tumor [7] = assay: Enhancement of the effect of anti-tumor agents (araC) on EMT-6 experimental tumors in mice; assay type: in vivo, BALB/c-strain female mice
Description: EMT-6 tumor cells (1×10^6) were inoculated intradermally into the right thighs of BALB/c-strain female mice (8 weeks old). On the 11th day after inoculation of the tumor cells and thereafter, 3'-dGuo-5'-MP in physiological saline solutions were administered intrapenitoneally to the mice for 8 consecutive days in the dose of 50 mg/kg. The pharmaceutical agents of the present invention were administered an hour after administration of araC. After commencement of the treatment with pharmaceutical agents, the tumor sizes were measured and compared with the control group.

[8] = 7 days after commencement of treatment, single agent 50 mg/kg × 8
[9] = 7 days after commencement of treatment, single agent 50 mg/kg × 8 (n = 10)
[10] = 14 days after commencement of treatment, single agent 50 mg/kg × 8
[11] = 14 days after commencement of treatment, single agent 50 mg/kg × 8 (n = 10)
[12] = 21 days after commencement of treatment, single agent 50 mg/kg × 8
[13] = 21 days after commencement of treatment, single agent 50 mg/kg × 8 (n = 10)
[14] = immediately before commencement of treatment, single agent 50 mg/kg × 8 (n = 10)

## COCC(O)Cn1ccnc1[N+](=O)[O-] (stereo not drawn) [misonidazole]
[1]
  Toxicity / side effects: neurotoxicity

## OC[C@H]1O[C@@H](n2cnc3c2NC=NC[C@H]3O)C[C@@H]1O [2'-deoxycoformycin]
Adenosinedeaminase [2]
  Adenosinedeaminase inhibition: inhibitor against adenosinedeaminase
[1]
  Toxicity / side effects: may cause damage to the immune systems

## Nc1ncnc2c1ncn2[C@@H]1O[C@H](CO)C[C@H]1O [3'-dAdo, 3'-deoxyadenosine]
EMT-6 tumor [3]
  Radiosensitizing activity: excellent radiosensitizing activities
[4]
  PLDR-inhibiting ability: confirmed to have a PLDR-inhibiting ability
[4]; in combination with 2'-deoxycoformycin
  PLDR-inhibiting ability in combination with 2'-deoxycoformycin: can be strengthened and prolonged
[1]
  Toxicity / side effects: various side effects
Adenosinedeaminase [5]
  Inactivation by adenosinedeaminase: readily inactivated by adenosinedeaminase

## Nc1ncnc2c1ncn2[C@@H]1O[C@H](COP(=O)(O)O)C[C@H]1O [3'-dAdo-5'-MP, 3'-deoxyadenosine-5'-monophosphate]
EMT-6 tumor [3]; 2 weeks after treatment
  Diameter ratio: 0.66 ± 0.14
  Mean tumor diameter: 4.75 ± 1.06 mm
  Volume ratio: 0.63 ± 0.18
EMT-6 tumor [3]; 3 weeks after treatment
  Diameter ratio: 0.49 ± 0.17
  Mean tumor diameter: 3.65 ± 1.24 mm
  Volume ratio: 0.58 ± 0.27
EMT-6 tumor [3]
  0.5 to less than 1 of volume ratio excluding cure; Tumor regression rate: slow, share of mice: 0%
  1.0 to less than 2.0 of volume ratio excluding cure; regrowth: slow, share of mice: 20%
  2.0 or more of volume ratio excluding cure; regrowth: rapid, share of mice: 10%
  Cure (tumors completely vanished), share of mice: 50%
  Less than 0.5 of volume ratio excluding cure; Tumor regression rate: rapid, share of mice: 20%
  Mean tumor diameter at the time of irradiation: 7.07 ± 0.23 mm
  Radiosensitizing activity: excellent radiosensitizing activities
[6]
  LD50 at 168 h: 500 mg/kg

## Nc1ccn([C@@H]2O[C@H](CO)[C@@H](O)[C@@H]2O)c(=O)n1 [araC, 1-β-D-arabinofuranosylcytosine, reference compound]
EMT-6 tumor [7]; [8]
  Mean tumor diameter ratio: 1.29 ± 0.13
EMT-6 tumor [7]; [9]
  Mean tumor diameter: 9.63 ± 0.68 mm
EMT-6 tumor [7]; [10]
  Mean tumor diameter ratio: 1.60 ± 0.20
EMT-6 tumor [7]; [11]
  Mean tumor diameter: 11.91 ± 1.21 mm
EMT-6 tumor [7]; [12]
  Mean tumor diameter ratio: 2.08 ± 0.20
EMT-6 tumor [7]; [13]
  Mean tumor diameter: 15.49 ± 1.26 mm
EMT-6 tumor [7]; [14]
  Mean tumor diameter: 7.49 ± 0.63 mm

## Nc1nc2c(ncn2[C@@H]2O[C@H](COP(=O)(O)O)C[C@H]2O)c(=O)[nH]1 [3'-dGuo-5'-MP, 3'-deoxyguanosine-5'-monophosphate]
EMT-6 tumor [3]; 2 weeks after treatment
  Diameter ratio: 0.93 ± 0.13
  Mean tumor diameter: 6.17 ± 0.90 mm
  Volume ratio: 1.19 ± 0.32
EMT-6 tumor [3]; 3 weeks after treatment
  Diameter ratio: 0.90 ± 0.18
  Mean tumor diameter: 5.95 ± 1.22 mm
  Volume ratio: 1.45 ± 0.46
EMT-6 tumor [3]
  0.5 to less than 1 of volume ratio excluding cure; Tumor regression rate: slow, share of mice: 22%
  1.0 to less than 2.0 of volume ratio excluding cure; regrowth: slow, share of mice: 56%
  2.0 or more of volume ratio excluding cure; regrowth: rapid, share of mice: 0%
  Cure (tumors completely vanished), share of mice: 22%
  Less than 0.5 of volume ratio excluding cure; Tumor regression rate: rapid, share of mice: 0%
  Mean tumor diameter at the time of irradiation: 6.46 ± 0.23 mm
  Radiosensitizing activity: excellent radiosensitizing activities
EMT-6 tumor [7]; [8]
  Mean tumor diameter ratio: 1.30 ± 0.13
EMT-6 tumor [7]; [9]
  Mean tumor diameter: 9.83 ± 1.07 mm
EMT-6 tumor [7]; 7 days after commencement, combination araC 50 mg/kg × 8 + 3'-dGuo-5'-MP 50 mg/kg × 8
  Mean tumor diameter ratio: 1.13 ± 0.15
EMT-6 tumor [7]; 7 days after commencement, combination araC 50 mg/kg × 8 + 3'-dGuo-5'-MP 50 mg/kg × 8 (1 h after araC)
  Mean tumor diameter: 8.28 ± 1.11 mm
EMT-6 tumor [7]; [10]
  Mean tumor diameter ratio: 1.61 ± 0.27
EMT-6 tumor [7]; [11]
  Mean tumor diameter: 12.10 ± 2.00 mm
EMT-6 tumor [7]; 14 days after commencement, combination araC 50 mg/kg × 8 + 3'-dGuo-5'-MP 50 mg/kg × 8
  Mean tumor diameter ratio: 1.26 ± 0.51
EMT-6 tumor [7]; 14 days after commencement, combination araC 50 mg/kg × 8 + 3'-dGuo-5'-MP 50 mg/kg × 8 (1 h after araC)
  Mean tumor diameter: 9.12 ± 3.67 mm
EMT-6 tumor [7]; [12]
  Mean tumor diameter ratio: 2.05 ± 0.32
EMT-6 tumor [7]; [13]
  Mean tumor diameter: 15.40 ± 2.01 mm
EMT-6 tumor [7]; 21 days after commencement, combination araC 50 mg/kg × 8 + 3'-dGuo-5'-MP 50 mg/kg × 8
  Mean tumor diameter ratio: 1.67 ± 0.68
EMT-6 tumor [7]; 21 days after commencement, combination araC 50 mg/kg × 8 + 3'-dGuo-5'-MP 50 mg/kg × 8 (1 h after araC)
  Mean tumor diameter: 12.07 ± 4.98 mm
EMT-6 tumor [7]; immediately before commencement of treatment, combination araC 50 mg/kg × 8 + 3'-dGuo-5'-MP 50 mg/kg × 8 (n = 9)
  Mean tumor diameter: 7.34 ± 0.62 mm
EMT-6 tumor [7]; [14]
  Mean tumor diameter: 7.57 ± 0.64 mm
[6]
  LD50 at 168 h: > 1000 mg/kg
